Source: patent US10106542B2, “Substituted 6,7-dihydropyrazolo[1,5-a]pyrazines as negative allosteric modulators of mGluR2 receptors” (Janssen Pharmaceutica NV, priority 2013, dated 2018)

Molecular target: T1, human mGlu2 receptor (Homo sapiens, UniProt Q14416)
T1 construct: expressed in transfected cells; host or cells: CHO cells (membrane preparation)
Assay: [35S]GTPγS binding assay (mGluR2 negative allosteric modulation)
Assay type: biochemical
Details: for IC50: membranes from CHO cells transfected with human mGlu2 receptor, glutamate 60 μM, pIC50 = −log IC50 (M), read-out: GTPγS - hmGluR2 anGT pIC50 (converted); for Emax: relative maximal effect: maximal % inhibition relative to the control glutamate response, read-out: GTPγS - hmGluR2 anGT Emax
Method: 1) [^35S]GTPγS binding assay
The [^35S]GTPγS binding assay is a functional membrane-based assay used to study G-protein coupled receptor (GPCR) function whereby incorporation of a non-hydrolysable form of GTP, [^35S]GTPγS (guanosine 5′-triphosphate, labelled with […] ^35S), is measured. The G-protein a subunit catalyzes the exchange of guanosine 5′-diphosphate (GDP) by guanosine triphosphate (GTP) and on activation of the GPCR by an agonist, [^35S]GTPγS, becomes incorporated and cannot be cleaved to continue the exchange cycle (Harper (1998) Current Protocols in Pharmacology 2.6.1-10, John Wiley & Sons, Inc.). […] Here we describe the use of the [^35S]GTPγS binding assay using membranes from cells transfected with the human mGlu2 receptor and adapted from Schaffhauser et al. (Molecular Pharmacology, 2003, […]) for the detection of the negative allosteric modulation (NAM) properties of the compounds of this invention.
CHO-cells were cultured to pre-confluence and stimulated with 5 mM butyrate for 24 h. Cells were then collected by scraping in PBS and cell suspension was centrifuged (10 min at 4000 RPM in benchtop centrifuge). Supernatant was discarded and pellet gently resuspended in 50 mM Tris-HCl, pH 7.4 by mixing with an Ultra Turrax homogenizer. The suspension was centrifuged at 12,400 RPM (Sorvall F14S-6x250Y) for 10 minutes and the supernatant discarded. The pellet was homogenized in 5 mM Tris-HCl, pH 7.4 using an Ultra Turrax homogenizer and centrifuged again (13,000 RPM, 20 min, 4° C.). The final pellet was resuspended in 50 mM Tris-HCl, pH 7.4 and stored at −80° C. in appropriate aliquots before use. Protein concentration was determined by the Bradford method (Bio-Rad, USA) with bovine serum albumin as standard.
Measurement of mGluR2 negative allosteric modulatory activity of test compounds was performed as follows. Test compounds and glutamate were diluted in assay buffer containing 10 mM HEPES acid, 10 mM HEPES salt, pH 7.4, 100 mM NaCl, 3 mM MgCl2 and 10 μM GDP. Human mGlu2 receptor-containing membranes were thawed on ice and diluted in assay buffer supplemented with 18 μg/ml saponin. […] After addition of [^35S]GTPγS (f.c. 0.1 nM), assay mixtures were shaken briefly and further incubated to allow [^35S]GTPγS incorporation on activation (30 minutes, 30° C.). Final assay mixtures contained 7 μg of membrane protein in 10 mM HEPES acid, 10 mM HEPES salt, pH 7.4, 100 mM NaCl, 3 mM MgCl2, 10 μM GDP and 10 μg/ml saponin. Total reaction volume was 200 μl. Reactions were terminated by rapid filtration through Unifilter-96 GF/B plates (Perkin Elmer, Massachusetts, USA) using a 96-well filtermate universal harvester. Filters were washed 6 times with ice-cold 10 mM NaH2PO4/10 mM Na2HPO4, pH 7.4. Filters were then air-dried, and 30 μl of liquid scintillation cocktail (Microscint-O) was added to each well. Membrane-bound radioactivity was counted in a Topcount.
The concentration-response curves of representative compounds of the present invention were generated using the Lexis software interface (developed at J&J). Data were calculated as % of the control glutamate response, defined as the response that is generated upon addition of an EC80-equivalent concentration of glutamate.

T1 sequence (Q14416 19-872): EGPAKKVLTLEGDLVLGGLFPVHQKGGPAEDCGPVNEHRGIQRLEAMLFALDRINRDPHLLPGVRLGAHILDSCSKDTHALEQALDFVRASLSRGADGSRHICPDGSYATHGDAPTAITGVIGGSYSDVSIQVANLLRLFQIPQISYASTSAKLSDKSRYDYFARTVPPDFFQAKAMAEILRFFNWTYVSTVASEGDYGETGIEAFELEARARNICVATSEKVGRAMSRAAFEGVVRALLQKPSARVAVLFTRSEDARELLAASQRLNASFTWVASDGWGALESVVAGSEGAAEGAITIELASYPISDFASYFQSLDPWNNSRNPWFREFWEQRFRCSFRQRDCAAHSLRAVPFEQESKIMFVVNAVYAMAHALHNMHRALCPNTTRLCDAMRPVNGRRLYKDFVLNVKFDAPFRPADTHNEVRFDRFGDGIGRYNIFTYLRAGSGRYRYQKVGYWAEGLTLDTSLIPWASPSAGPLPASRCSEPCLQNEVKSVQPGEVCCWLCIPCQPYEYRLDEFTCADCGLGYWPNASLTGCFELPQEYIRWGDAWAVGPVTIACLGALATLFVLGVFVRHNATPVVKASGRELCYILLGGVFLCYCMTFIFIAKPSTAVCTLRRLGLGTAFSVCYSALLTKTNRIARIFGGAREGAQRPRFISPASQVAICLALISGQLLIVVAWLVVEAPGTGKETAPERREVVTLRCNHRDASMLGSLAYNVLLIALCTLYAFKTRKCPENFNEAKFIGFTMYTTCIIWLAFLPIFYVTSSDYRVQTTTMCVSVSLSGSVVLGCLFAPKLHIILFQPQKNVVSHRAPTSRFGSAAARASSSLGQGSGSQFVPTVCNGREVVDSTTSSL

SMILES | IC50 [M] | Emax [%]
Cc1cc(-c2cnn3c2C(=O)N(c2ccc(C(C)O)cc2)C[C@@H]3C)ccn1 (stereo partly drawn) [compound 149, (7S)-5-[4-(1-Hydroxyethyl)phenyl]-7-methyl-3-(2-methyl-4-pyridyl)-6,7-dihydropyrazolo[1,5-a]pyrazin-4-one] | > 5.01e-05 | 49
Cc1cc(-c2cnn3c2C(=O)N(c2ccc(C(F)(F)F)c(OC(C)C)c2)C[C@@H]3C)ccn1 [compound 154] | 2e-08 | 104
Cc1cc(-c2cnn3c2C(=O)N(c2ccc(C4CC4)cc2)C[C@@H]3C)ccn1 [compound 156, (7S)-5-(4-Cyclopropylphenyl)-7-methyl-3-(2-methyl-4-pyridyl)-6,7-dihydropyrazolo[1,5-a]pyrazin-4-one] | 5.62e-08 | 106
COc1cc(Cl)ccc1N1C[C@H](C)n2ncc(-c3ccnc(C)c3)c2C1=O [compound 161] | 1.55e-05 | 76
Cc1cc(-c2cnn3c2C(=O)N(c2ccc(Cl)c(OC(F)F)c2)C[C@@H]3C)ccn1 [compound 163] | 1.1e-08 | 103
Cc1cc(-c2cnn3c2C(=O)N(c2ccc(OC(C)C(F)(F)F)cc2)C[C@@H]3C)ccn1 (stereo partly drawn) [compound 165] | 1.95e-08 | 102
Cc1cc(-c2cnn3c2C(=O)N(c2ccc(Cl)c(Cl)c2)C[C@@H]3C)cc[n+]1[O-] [compound 170, (7S)-5-(3,4-dichlorophenyl)-7-methyl-3-(2-methyl-1-oxido-pyridin-1-ium-4-yl)-6,7-dihydropyrazolo[1,5-a]pyrazin-4-one] | 7.24e-08 | 107
C[C@H]1CN(c2ccc(C(F)(F)F)cc2)C(=O)c2c(-c3ccnc(C4CC4)c3)cnn21 [compound 173] | 4.37e-09 | 106
C[C@H]1CN(c2ccc(C(F)(F)F)c(Cl)c2)C(=O)c2c(-c3ccnc(OCCF)c3)cnn21 [compound 177] | 9.33e-09 | 105
CNc1cc(-c2cnn3c2C(=O)N(c2ccc(Cl)cc2)C[C@@H]3C)ccn1 [compound 178] | 2.4e-08 | 107
CNc1cc(-c2cnn3c2C(=O)N(c2ccc(C(F)(F)F)c(C#N)c2)C[C@@H]3C)ccn1 [compound 179] | 3.63e-08 | 103
Cc1cc(-c2cnn3c2C(=O)N(c2ccc(C(F)(F)F)cc2)CC3C(F)F)ccn1 (stereo not drawn) [compound 181, 7-(Difluoromethyl)-3-(2-methyl-4-pyridyl)-5-[4-(trifluoromethyl)phenyl]-6,7-dihydropyrazolo[1,5-a]pyrazin-4-one] | 4.17e-07 | 103
Cc1cc(-c2cnn3c2C(=O)N(c2ccc(Cl)cn2)C[C@@H]3C)ccn1 [compound 187] | 3.24e-07 | 108
C[C@H]1CN(c2ccc(C(F)(F)F)cn2)C(=O)c2c(-c3ccncc3)cnn21 [compound 190] | 2.09e-07 | 105
Cc1cc(-c2cnn3c2C(=O)N(c2ccc(C(F)(F)F)c(C)n2)C[C@@H]3C)ccn1 [compound 192, (7S)-7-Methyl-3-(2-methyl-4-pyridyl)-5-[6-methyl-5-(trifluoromethyl)-2-pyridyl]-6,7-dihydropyrazolo[1,5-a]pyrazin-4-one] | 7.41e-09 | 106
Cc1cc(-c2cnn3c2C(=O)N(c2cc(C)c(C(F)(F)F)cn2)C[C@@H]3C)ccn1 [compound 193] | 1.91e-08 | 103
Cc1cc(-c2cnn3c2C(=O)N(c2ccc(C(F)(F)F)cn2)C[C@@H]3C)cc(C)n1 [compound 194] | 1.38e-07 | 107
CCOc1ccc(Cl)c(N2C[C@H](C)n3ncc(-c4ccnc(C)c4)c3C2=O)n1 [compound 195] | 4.07e-06 | 92
Cc1cc(-c2cnn3c2C(=O)N(c2ccc(Cl)c(C)n2)C[C@@H]3C)ccn1 [compound 196] | 5.01e-08 | 107
Cc1cc(-c2cnn3c2C(=O)N(c2cc(Cl)c(C)cn2)C[C@@H]3C)ccn1 [compound 198] | 9.12e-08 | 104
CCOc1ccc(C(F)(F)F)c(N2C[C@H](C)n3ncc(-c4ccnc(C)c4)c3C2=O)n1 [compound 199] | 2.57e-05 | 67

SMILES | IC50 [M] | Emax [%]
Cc1cc(-c2cnn3c2C(=O)N(c2ccc(Cl)c(Cl)n2)C[C@@H]3C)ccn1 [compound 202] | 1.02e-08 | 103
Cc1cc(-c2cnn3c2C(=O)N(c2cc(Cl)c(Cl)cn2)C[C@@H]3C)ccn1 [compound 203] | 6.76e-09 | 105
COc1nc(N2C[C@H](C)n3ncc(-c4ccnc(C)c4)c3C2=O)ccc1Cl [compound 206] | 1.78e-08 | 111
COc1nc(N2C[C@H](C)n3ncc(-c4ccnc(N5CCC5)c4)c3C2=O)ccc1C(F)(F)F [compound 209] | 6.46e-09 | 104
Cc1cc(-c2cnn3c2C(=O)N(c2ccc(C(F)(F)F)cn2)CC3)ccn1 [compound 211] | 3.72e-06 | 92
Cc1cc(-c2cnn3c2C(=O)N(c2ccc(C(F)(F)F)cc2)CC3C(F)(F)F)ccn1 (stereo not drawn) [compound 238, 3-(2-Methyl-4-pyridyl)-7-(trifluoromethyl)-5-[4-(trifluoromethyl)phenyl]-6,7-dihydropyrazolo[1,5-a]pyrazin-4-one] | 2.14e-06 | 103
CNc1cc(-c2cnn3c2C(=O)N(c2ccc(C(F)(F)F)cc2)C[C@@H]3C)cc(C)n1 [compound 241] | 1.82e-08 | 109
CNc1cc(-c2cnn3c2C(=O)N(c2ccc(C(F)(F)F)cc2)C[C@@H]3C)cc(F)n1 [compound 243] | 2.24e-08 | 116
Cc1cc(-c2cnn3c2C(=O)N(c2ccc(Cl)cc2Cl)CC3)ccn1 [compound 244] | 8.71e-06 | 80
C[C@H]1CN(c2ccc(C(F)(F)F)c(CF)c2)C(=O)c2c(-c3ccnc(N(C)C)c3)cnn21 [compound 246] | 4.17e-09 | 116
C[C@H]1CN(c2ccc(C(F)(F)F)cc2)C(=O)c2c(-c3ccnc(F)c3)cnn21 [compound 247] | 3.02e-08 | 109
C[C@H]1CN(c2ccc(C(F)(F)F)c(OCCF)c2)C(=O)c2c(-c3ccnc(N(C)C)c3)cnn21 [compound 249] | 8.32e-09 | 109
COc1nc(N2C[C@H](C)n3ncc(-c4ccnc(N(C)C)c4)c3C2=O)ccc1C(F)(F)F [compound 250] | 3.98e-09 | 120
CCN(C)c1cc(-c2cnn3c2C(=O)N(c2ccc(C(F)(F)F)cc2)C[C@@H]3C)ccn1 [compound 253] | 6.17e-09 | 111
CCN(C)c1cc(-c2cnn3c2C(=O)N(c2ccc(C(F)(F)F)c(Cl)c2)C[C@@H]3C)ccn1 [compound 254] | 1.7e-09 | 109
CCCNc1cc(-c2cnn3c2C(=O)N(c2ccc(C(F)(F)F)c(C)c2)C[C@@H]3C)ccn1 [compound 258] | 6.03e-09 | 108
CCCNc1cc(-c2cnn3c2C(=O)N(c2ccc(C(F)(F)F)cc2)C[C@@H]3C)ccn1 [compound 259] | 1.78e-08 | 105
Cc1cc(N2C[C@H](C)n3ncc(-c4ccnc(N5CCC5)c4)c3C2=O)ccc1C(F)(F)F [compound 260] | 3.55e-09 | 105
CC(C)Nc1cc(-c2cnn3c2C(=O)N(c2ccc(Cl)c(Cl)c2)C[C@@H]3C)ccn1 [compound 261] | 1.1e-08 | 107
CC(C)Nc1cc(-c2cnn3c2C(=O)N(c2ccc(C(F)(F)F)c(Cl)c2)C[C@@H]3C)ccn1 [compound 262] | 6.17e-09 | 109
CCCNc1cc(-c2cnn3c2C(=O)N(c2ccc(Cl)c(Cl)c2)C[C@@H]3C)ccn1 [compound 263] | 4.68e-09 | 109
